In US12558428B2, “Heterobifunctional compounds and their use in treating disease” (Halda Therapeutics OpCo, Inc., priority 2024, dated 2026):
Where two headings read alike, the source gives them in different places.

Legend:
[1] = test system: T-Rex 293 cells having increased expression of estrogen receptor alpha protein; assay: Cellular growth inhibition assay, T-Rex 293 cells, (+) doxycycline; assay type: cell-based; details: T-REx-293, 72 h, 72 hours
Description: (§1) Exemplary compounds were tested for the ability to inhibit the proliferation of the following types of cells: (i) a T-Rex 293 cell line having increased expression of estrogen receptor alpha protein from exposure to doxycycline and (ii) a T-Rex 293 cell line lacking increased expression of estrogen receptor alpha protein.
(§2) The following types of cells were prepared for this experiment: (i) a T-Rex 293 cell line having increased expression of estrogen receptor alpha protein from exposure to doxycycline and (ii) a T-Rex 293 cell line lacking increased expression of estrogen receptor alpha protein. The ability of the test compounds to inhibit proliferation of the foregoing cell types was evaluated according to the procedures set forth below.
(§3) The doxycycline-inducible estrogen receptor alpha protein expressing cell line was established using the following protocol: T-Rex 293 cells were purchased from Invitrogen (Cat #R71007) and transfected using Lipofectamine 2000 with the wild-type estrogen receptor alpha protein sequence cloned into the pcDNA4/TO vector. Transfected cells were selected using 400 μg/mL Zeocin (Invitrogen Cat #R25001). Following selection, single clones were raised and maintained in Dulbecco's Modified Eagle Medium (DMEM) supplemented with 10% w/w Tetracycline-free fetal bovine serum (FBS) and 250 μg/mL Zeocin. Clones were analyzed for expression of estrogen receptor alpha protein in the presence and absence of 3 ng/mL doxycycline (Sigma Cat #D9891), and a single doxycycline-inducible clone (hereinafter “SC”) was selected for use in downstream assays.
(§4) The SC cells were seeded on poly-D-lysine coated, black clear-bottom 384-well plates at 2500/well, in 25 μL Phenol Red Free Dulbecco's Modified Eagle Medium (DMEM) supplemented with 10% w/w charcoal-dextran treated fetal bovine serum (FBS) and 1% w/w pen-strep, with or without 3 ng/mL doxycycline. Pen-Strep is a commercially available mixture of penicillin G and streptomycin, which is used in mammalian cell culture media to prevent bacterial contamination. Phenol Red Free Dulbecco's Modified Eagle Medium (DMEM) supplemented with 10% w/w charcoal-dextran treated fetal bovine serum (FBS) and 1% w/w pen-strep, with or without 3 ng/mL doxycycline is herein referred to as Treatment Medium. Following seeding of cells in the plates, the plates were spun at 300×g for 30 seconds, then equilibrated to room temperature for 30 minutes, and then deposited in a humidified tissue culture incubator maintained at 37° C. with 5% CO2.
(§5) At 24 hours after seeding of the cells, dilutions of test compound were prepared in DMSO and dissolved in Treatment Medium, to achieve a final DMSO concentration of 0.5% w/w, thereby providing the Test Compound Solution. A 25 μL aliquot of the Test Compound Solution was added to cells in the well plates. An equal volume of a solution containing DMSO and Treatment Medium was used as a negative control. Following treatment of cells with Test Compound Solution or said equal volume of a solution containing DMSO and Treatment Medium, the plates were spun at 300×g for 30 seconds, and then left in an incubator for 72 hours.
(§6) At the end of the treatment duration, cell viability was quantified with CellTiter-Glo 2.0 reagent (Promega Cat #G9243). For this purpose, plates were equilibrated to room temperature for 30 minutes, and then 25 μL of CellTiter-Glo 2.0 reagent was added to cells in the plate wells. Plates were then agitated on a shaker for two minutes at 500 rpm and subsequently incubated at room temperature for 10 minutes. Following incubation, the plates were spun at 3000×g for 30 seconds, then sealed with an optical adhesive cover, and luminescence readings were measured with an EnVision Plate Reader (Perkin Elmer).
(§7) Data was normalized using zero luminescence for baseline. […]

[2] = test system: T-Rex 293 cells lacking increased expression of estrogen receptor alpha protein; assay: Cellular growth inhibition assay, T-Rex 293 cells, (−) doxycycline; assay type: cell-based; details: T-REx-293, 72 h, 72 hours
Description: as §1, §2, §3, §4, §5, §6, §7

[3] = Table 7-A, T-Rex 293 cells with doxycycline (increased ERα expression), CellTiter-Glo, read-out: (+) Dox GI50
[4] = Table 7-A, T-Rex 293 cells without doxycycline (lacking increased ERα expression), CellTiter-Glo, read-out: (−) Dox GI50

SMILES | GI50 [1, 3] [nM] | GI50 [2, 4] [nM] | GI50 ([1]; T-Rex 293 cells with doxycycline-induced ERα expression, CellTiter-Glo 2.0, read-out: (+) Dox TRex ERa (GI50)) [nM] | GI50 ([2]; T-Rex 293 cells without doxycycline, CellTiter-Glo 2.0, read-out: (−) Dox TRex ERa (GI50)) [nM]
COc1cc(N2CCN(CC3(O)CCN(c4ccc(C5=N[C@@H](C)c6nnc(C)n6-c6sc(C)c(C)c65)cc4)CC3)CC2)ccc1[C@@H]1c2ccc(O)cc2CC[C@@H]1c1ccccc1 (single isomer, unassigned) [III-321] | < 50 | 500 to 2500 | – | –
COc1cc(N2CCN(CC3(O)CCN(c4ccc(C5=N[C@@H](C)c6nnc(C)n6-c6sc(C)c(C)c65)cc4)CC3)CC2)ccc1[C@H]1c2ccc(O)cc2CC[C@H]1c1ccccc1 (single isomer, unassigned) [III-322] | 50 to 500 | 50 to 500 | – | –
COc1cc(N2CCN(CC3(O)CCN(c4ccc(C5=N[C@@H](C)c6nnc(C)n6-c6sc(C)c(C)c65)c(F)c4)CC3)CC2)ccc1[C@H]1c2ccc(O)cc2CC[C@H]1c1ccc(F)cc1 (single isomer, unassigned) [III-327] | 50 to 500 | 50 to 500 | – | –
COc1cc(N2CCN(CC3(O)CCN(c4ccc(C5=N[C@@H](C)c6nnc(C)n6-c6sc(C)c(C)c65)cc4)CC3)CC2)ccc1[C@H]1c2ccc(O)cc2CC[C@H]1c1ccc(F)cc1F (single isomer, unassigned) [III-333] | 50 to 500 | 500 to 2500 | – | –
COc1cc(N2CCN(CC3(O)CCN(c4ccc(C5=N[C@@H](C)c6nnc(C)n6-c6sc(C)c(C)c65)cc4)CC3)CC2)ccc1[C@@H]1c2ccc(O)cc2CC[C@@H]1c1ccc(F)cc1F (single isomer, unassigned) [III-334] | < 50 | 500 to 2500 | – | –
COc1ccc([C@@H]2CCc3cc(O)ccc3[C@@H]2c2ccc(N3CCN(CC4(O)CCN(c5ccc(C6=N[C@@H](C)c7nnc(C)n7-c7sc(C)c(C)c76)cc5)CC4)CC3)cc2Cl)cc1 (single isomer, unassigned) [III-335] | 50 to 500 | 500 to 2500 | – | –
COc1ccc([C@H]2CCc3cc(O)ccc3[C@H]2c2ccc(N3CCN(CC4(O)CCN(c5ccc(C6=N[C@@H](C)c7nnc(C)n7-c7sc(C)c(C)c76)cc5)CC4)CC3)cc2Cl)cc1 (single isomer, unassigned) [III-336] | < 50 | 500 to 2500 | – | –
Cn1cc(-c2cc(C(C)(C)O)ccc2Oc2ccc(N3CCN(CC4CCN(c5ccc([C@@H]6c7ccc(O)cc7CC[C@@H]6c6ccccc6)cc5)CC4)CC3)cc2)c2cc[nH]c2c1=O [I-18, 4-(2-(4-(4-((1-(4-((1R,2S)-6-hydroxy-2-phenyl-1,2,3,4-tetrahydronaphthalen-1-yl)phenyl)piperidin-4-yl)methyl)piperazin-1-yl)phenoxy)-5-(2-hydroxypropan-2-yl)phenyl)-6-methyl-1,6-dihydro-7H-pyrrolo[2,3-c]pyridin-7-one] | – | – | < 50 | 50 to 500
Cc1sc2c(c1C)C(c1ccc(N3CC(N4CCN(CCOc5ccc([C@@H]6c7ccc(O)cc7CC[C@@H]6c6ccccc6)cc5)CC4)C3)cc1)=NC(Cc1ncco1)c1nnc(C)n1-2 (stereo partly shown) [III-41] | < 50 | 50 to 500 | – | –
COc1cc(N2CCN(CC3CCN(c4ccc(C5=N[C@@H](C)c6nnc(C)n6-c6sc(C)c(C)c65)cc4)CC3)CC2)c(F)cc1[C@@H]1c2ccc(O)cc2CC[C@@H]1c1ccc(F)cc1 [III-313] | < 50 | 500 to 2500 | – | –
COc1cc(N2CCN(CC3CCN(c4ccc(C5=N[C@@H](C)c6nnc(C)n6-c6sc(C)c(C)c65)cc4)CC3)CC2)c(F)cc1[C@H]1c2ccc(O)cc2CC[C@H]1c1ccc(F)cc1 [III-314] | 50 to 500 | 500 to 2500 | – | –
COc1cc(N2CCN(CC3CCN(c4ccc(C5=N[C@@H](C)c6nnc(C)n6-c6sc(C)c(C)c65)cc4)CC3)CC2)ccc1[C@H]1c2ccc(O)cc2CC[C@H]1c1ccc(F)cc1 [III-315] | 500 to 2500 | 500 to 2500 | – | –
COc1cc(N2CCN(CC3CCN(c4ccc(C5=N[C@@H](C)c6nnc(C)n6-c6sc(C)c(C)c65)cc4)CC3)CC2)ccc1[C@@H]1c2ccc(O)cc2CC[C@@H]1c1ccc(F)cc1 [III-316] | < 50 | 500 to 2500 | – | –
COc1cc(N2CCN(CC3(O)CCN(c4ccc(C5=N[C@@H](C)c6nnc(C)n6-c6sc(C)c(C)c65)cc4)CC3)CC2)c(F)cc1[C@H]1c2ccc(O)cc2CC[C@H]1c1ccc(F)cc1 [III-319] | < 50 | 50 to 500 | – | –
